According to paper PMC4995097, “Talin-KANK1 interaction controls the recruitment of cortical microtubule stabilizing complexes to focal adhesions” (eLife, 2016):

How the values were obtained:
GFP-talin1 = assay: Streptavidin pull down of BioGFP-KANK1 constructs with GFP-talin1, Western blot; assay type: binding, mouse; settings: 4A mutation introduced into the construct; HEK293T cells, Figure 3A
Text: BioGFP-tagged KANK1 mutants were constructed using PCR and pBioGFP-C1 vector as previously described ([van der Vaart et al., 2013]). Rescue constructs for BioGFP-tagged KANK1 were either based on the version previously described ([van der Vaart et al., 2013]) or a version obtained by PCR-based mutagenesis of the sequence […] to […]. mCherry-tagged paxillin construct was made by replacing GFP from pQC-GPXN ([Bouchet et al., 2011]) by mCherry (pmCherry-C1, Clontech). TagRFP-tagged paxillin construct was made by PCR-based amplification and cloning in pTagRFP-T-C1 (kind gift from Y. Mimori-Kiyosue, Riken Institute, Japan). HA-tagged KANK1 construct was generated by cloning KANK1 coding sequence into pMT2-SM-HA (gift of C. Hoogenraad, Utrecht University, The Netherlands). pLVX-IRES-Neo (pLVIN) vectors was constructed by cloning the IRES-neomycin resistance cassette from the pQCXIN plasmid (Clontech) into the pLVX-IRES-Puro plasmid (Clontech). […]
Streptavidin-based pull down assays of biotinylated proteins expressed using pBioGFP-C1 constructs transfected in HEK293T cells was performed and analyzed as previously described ([van der Vaart et al., 2013]). […] For RP-nanoLC-MS/MS, samples were resuspended in 10% formic acid (FA) / 5% DMSO and was analyzed using a Proxeon Easy-nLC100 (Thermo Scientific) connected to an Orbitrap Q-Exactive mass spectrometer. […]

[1] = tested on: focal adhesions in HeLa cells; assay: TIRFM localization of GFP-tagged KANK1 constructs relative to focal adhesions; assay type: cell-based, human; settings: live HeLa cells with mCherry- or TagRFP-paxillin
Description: HeLa Kyoto cell line was described previously ([Lansbergen et al., 2006]; [Mimori-Kiyosue et al., 2005]). HEK293T cells were purchased from ATCC; culture and transfection of DNA and siRNA into these cell lines was performed as previously described ([van der Vaart et al., 2013]). HaCaT cells were purchased at Cell Line Service (Eppelheim, Germany) and cultured according to manufacturer’s instructions. The cell lines were routinely checked for mycoplasma contamination using LT07-518 Mycoalert assay (Lonza, Switzerland).The identity of the cell lines was monitored by immunofluorescence-staining-based analysis with multiple markers. Blebbistatin was purchased from Enzo Life Sciences and used at 50 μM. Serum starvation in HeLa cells was done for 48 hr and focal adhesion assembly was stimulated by incubation with fetal calf serum-containing medium with or without blebbistatin for 2 hr. ROCK1 inhibitor Y-27632 was purchased at Sigma-Aldrich and used at 1 or 10 μM. Double stable HeLa cell line expressing GFP-KANK1 and TagRFP-paxillin was made by viral infection. We used a pLVIN-TagRFP-paxillin-based lentivirus and a pQC-GFP-KANK1-based retrovirus packaged in HEK293T cells using respectively Lenti-X HTX packaging and pCL-Ampho vectors. Antibiotic selection was applied to cells 48 hr after infection using 500 μg/ml G418 (Geneticin, Life Technologies) and 1 μg/ml puromycin (InvivoGen). […]

Substance: KN domain: GFP-tagged KN domain of KANK1 (residues 30–68)
- effect of 4A mutation on interaction with talin1 (in words) (GFP-talin1): An even stronger reduction was observed
- localization relative to FAs, endogenous KANK1/2 present (in words) [1]: strongly and specifically accumulated within FAs
